According to patent publication US20180099931A1 (AbbVie S.à.r.l., priority 2016, published 2018):
Like-named read-outs stand apart in the source and are kept apart here.

Target: T1, F508delCFTR (Homo sapiens, UniProt P13569, DEL508-508)
T1 construct: expressed in transfected cells; host or cells: CFBE41o- human lung-derived epithelial cells (CFBE4lo-F508delCFTR-HRP), doxycycline-inducible
Assay: Cell Surface Expression-Horse Radish Peroxidase (CSE-HRP) Assay;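 for Maximum % activity (with co-corrector): co-corrector and positive control are both the same reference corrector at 2 µM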;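 for Maximum % activity (without co-corrector): percent of the 2 µM on-plate positive control corrector response above DMSO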
Type: cell-based
Details: for Emax / Maximum % activity (with co-corrector): maximum at any tested concentration, normalized to on-plate positive control; for Emax: read-out: Maximum % activity (without co-corrector)

[1] = test compound without co-corrector
[2] = test compound without co-corrector, read-out: EC50 (without co-corrector)
[3] = with co-corrector (2 μM of 3-[(2R,4R)-4-({[1-(2,2-difluoro-1,3-benzodioxol-5-yl)cyclopropyl]carbonyl}amino)-7-methoxy-3,4-dihydro-2H-chromen-2-yl]benzoic acid)
[4] = with co-corrector (2 μM of 3-[(2R,4R)-4-({[1-(2,2-difluoro-1,3-benzodioxol-5-yl)cyclopropyl]carbonyl}amino)-7-methoxy-3,4-dihydro-2H-chromen-2-yl]benzoic acid), read-out: EC50 (with co-corrector)

T1 sequence (P13569 with tags, fused parts or gaps DEL508-508): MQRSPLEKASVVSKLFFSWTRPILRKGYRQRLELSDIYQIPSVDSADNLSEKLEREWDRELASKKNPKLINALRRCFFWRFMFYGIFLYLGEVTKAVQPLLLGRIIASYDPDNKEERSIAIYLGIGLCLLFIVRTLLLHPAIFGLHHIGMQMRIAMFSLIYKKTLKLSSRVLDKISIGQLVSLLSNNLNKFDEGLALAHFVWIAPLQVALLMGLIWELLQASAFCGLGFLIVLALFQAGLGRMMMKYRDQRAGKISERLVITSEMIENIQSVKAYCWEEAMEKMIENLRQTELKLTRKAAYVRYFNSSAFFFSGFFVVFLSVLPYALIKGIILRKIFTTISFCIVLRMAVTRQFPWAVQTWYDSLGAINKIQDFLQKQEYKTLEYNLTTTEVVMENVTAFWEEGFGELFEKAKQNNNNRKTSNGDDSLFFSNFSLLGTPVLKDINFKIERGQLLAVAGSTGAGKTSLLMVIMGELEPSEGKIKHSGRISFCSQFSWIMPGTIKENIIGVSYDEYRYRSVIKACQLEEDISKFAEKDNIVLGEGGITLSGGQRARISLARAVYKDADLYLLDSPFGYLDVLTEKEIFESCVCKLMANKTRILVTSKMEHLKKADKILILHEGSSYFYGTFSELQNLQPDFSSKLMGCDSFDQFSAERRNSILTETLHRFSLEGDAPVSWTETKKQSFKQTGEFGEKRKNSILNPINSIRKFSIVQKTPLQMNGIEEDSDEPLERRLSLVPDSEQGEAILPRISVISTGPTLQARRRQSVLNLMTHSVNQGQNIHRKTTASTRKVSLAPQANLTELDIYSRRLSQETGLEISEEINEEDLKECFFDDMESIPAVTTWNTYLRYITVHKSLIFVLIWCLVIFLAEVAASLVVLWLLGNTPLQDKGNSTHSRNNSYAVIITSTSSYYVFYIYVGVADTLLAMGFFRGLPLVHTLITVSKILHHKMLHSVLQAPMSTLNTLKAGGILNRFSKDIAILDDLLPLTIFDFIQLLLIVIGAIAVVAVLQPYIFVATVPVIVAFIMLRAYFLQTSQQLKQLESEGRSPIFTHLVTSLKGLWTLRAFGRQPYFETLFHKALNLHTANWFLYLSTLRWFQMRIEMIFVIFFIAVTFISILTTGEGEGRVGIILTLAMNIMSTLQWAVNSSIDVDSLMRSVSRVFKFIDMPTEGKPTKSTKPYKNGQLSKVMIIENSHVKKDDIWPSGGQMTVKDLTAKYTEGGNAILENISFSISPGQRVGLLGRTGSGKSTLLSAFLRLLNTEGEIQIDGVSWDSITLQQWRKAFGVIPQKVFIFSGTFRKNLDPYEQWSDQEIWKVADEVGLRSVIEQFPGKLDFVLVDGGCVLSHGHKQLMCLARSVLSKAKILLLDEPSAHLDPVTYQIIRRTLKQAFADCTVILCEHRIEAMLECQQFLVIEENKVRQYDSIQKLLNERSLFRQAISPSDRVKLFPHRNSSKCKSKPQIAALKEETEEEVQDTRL

SMILES	Emax [1]	EC50 [2]	Maximum % activity (with co-corrector) [3]	EC50 [4]
COc1ccc(C(C)(C)C)cc1CN[C@H]1[C@H](C(C)(C)C)[C@@H](C(=O)O)N(C(=O)c2cnn(-c3ccc(F)cc3F)c2C)[C@H]1c1ccccc1 [II-356]	> 200%	1000 to 10000 nM	+++ (≥350)	< 1000 nM
COc1ccc(-n2ncc(C(=O)N3[C@H](C(=O)O)[C@@H](C(C)(C)C)[C@H](NCc4cc(C(C)(C)C)ccc4OC)[C@@H]3c3ccccc3)c2C)cc1 [II-357]	> 200%	1000 to 10000 nM	+++ (≥350)	< 1000 nM
COc1ccc(C(C)(C)C)cc1CN[C@H]1[C@H](C(C)(C)C)[C@@H](C(=O)O)N(C(=O)c2cnn(C)c2-c2ccccc2)[C@H]1c1ccccc1 [II-358]	< 100%	1000 to 10000 nM	+++ (≥350)	1000 to 10000 nM
CCc1c(C(=O)N2[C@H](C(=O)O)[C@@H](C(C)(C)C)[C@H](NCc3cc(C(C)(C)C)ccc3OC)[C@@H]2c2ccccc2)c(C)nn1-c1ccc(F)cc1 [II-359]	> 200%	1000 to 10000 nM	+++ (≥350)	1000 to 10000 nM
COc1ccc(C(C)(C)C)cc1CN[C@H]1[C@H](C(C)(C)C)[C@@H](C(=O)O)N(C(=O)c2cnn(C(C)(C)C)c2C(F)(F)F)[C@H]1c1ccccc1 [II-360]	100 to 200%	1000 to 10000 nM	+++ (≥350)	< 1000 nM
COc1ccc(C(C)(C)C)cc1CN[C@H]1[C@H](C(C)(C)C)[C@@H](C(=O)O)N(C(=O)c2cnn(-c3ccccc3)c2C)[C@H]1c1ccccc1 [II-361]	> 200%	1000 to 10000 nM	+++ (≥350)	< 1000 nM
CCn1nc(C)c(C(=O)N2[C@H](C(=O)O)[C@@H](C(C)(C)C)[C@H](NCc3cc(C(C)(C)C)ccc3OC)[C@@H]2c2ccccc2)c1C [II-362]	100 to 200%	1000 to 10000 nM	+++ (≥350)	1000 to 10000 nM
COc1ccc(C(C)(C)C)cc1CN[C@H]1[C@H](C(C)(C)C)[C@@H](C(=O)O)N(C(=O)c2c(C)nn3c2CCCC3)[C@H]1c1ccccc1 [II-363]	100 to 200%	1000 to 10000 nM	+++ (≥350)	1000 to 10000 nM
COc1ccc(C(C)(C)C)cc1CN[C@H]1[C@H](C(C)(C)C)[C@@H](C(=O)O)N(C(=O)c2cnn3c2CCCC3)[C@H]1c1ccccc1 [II-364]	100 to 200%	1000 to 10000 nM	+++ (≥350)	1000 to 10000 nM
COc1ccc2c(c1)CCC2C(=O)N1[C@H](C(=O)O)[C@@H](C(C)(C)C)[C@H](NCc2cc(C(C)(C)C)ccc2OC)[C@@H]1c1ccccc1 (some centres unmarked) [II-365]	> 200%	< 1000 nM	+++ (≥350)	< 1000 nM
COc1ccc(C(C)(C)C)cc1CN[C@H]1[C@H](C(C)(C)C)[C@@H](C(=O)O)N(C(=O)[C@]2(C)CCc3c(OC)cccc32)[C@H]1c1ccccc1 [II-366]	100 to 200%	1000 to 10000 nM	+++ (≥350)	1000 to 10000 nM
COc1ccc(C(C)(C)C)cc1CN[C@H]1[C@H](C(C)(C)C)[C@@H](C(=O)O)N(C(=O)C2(C)CCc3c(Cl)cccc32)[C@H]1c1ccccc1 (some centres unmarked) [II-367]	100 to 200%	1000 to 10000 nM	+++ (≥350)	1000 to 10000 nM
COc1ccc(C(C)(C)C)cc1CN[C@H]1[C@H](C(C)(C)C)[C@@H](C(=O)O)N(C(=O)C2(C)CCc3ccccc32)[C@H]1c1ccccc1 (some centres unmarked) [II-368]	100 to 200%	1000 to 10000 nM	+++ (≥350)	1000 to 10000 nM
COc1ccc(C(C)(C)C)cc1CN[C@H]1[C@H](C(C)(C)C)[C@@H](C(=O)O)N(C(=O)C2CCc3cc(Cl)ccc32)[C@H]1c1ccccc1 (some centres unmarked) [II-369]	> 200%	< 1000 nM	+++ (≥350)	< 1000 nM
COc1ccc(C(C)(C)C)cc1CN[C@H]1[C@H](C(C)(C)C)[C@@H](C(=O)O)N(C(=O)C2(c3ccccc3)COc3ccccc32)[C@H]1c1ccccc1 (some centres unmarked) [II-370]	< 100%	< 1000 nM	+++ (≥350)	< 1000 nM
CCC(C)(O)CC(=O)N1[C@H](C(=O)O)[C@@H](C(C)(C)C)[C@H](NCc2cc(C(C)(C)C)ccc2OC)[C@@H]1c1ccccc1 (some centres unmarked) [II-371]	> 200%	1000 to 10000 nM	+++ (≥350)	1000 to 10000 nM
COc1ccc(C(C)(C)C)cc1CN[C@H]1[C@H](C(C)(C)C)[C@@H](C(=O)O)N(C(=O)CC(C)(O)C(C)C)[C@H]1c1ccccc1 (some centres unmarked) [II-372]	> 200%	1000 to 10000 nM	+++ (≥350)	1000 to 10000 nM
COc1ccc(C(C)(C)C)nc1CN[C@H]1[C@H](C(C)(C)C)[C@@H](C(=O)O)N(C(=O)C2CCCCC2)[C@H]1c1ccccc1 [II-373]	100 to 200%	1000 to 10000 nM	+++ (≥350)	1000 to 10000 nM
COc1ccc(C(C)(C)C)cc1CN[C@H]1[C@H](C(C)(C)C)[C@@H](C(=O)O)N(C(=O)C2CCC(C(F)(F)F)CC2)[C@H]1c1ccccc1 (some centres unmarked) [II-374]	100 to 200%	1000 to 10000 nM	+++ (≥350)	< 1000 nM
COc1ccc(C(C)(C)C)cc1CN[C@H]1[C@H](C(C)(C)C)[C@@H](C(=O)O)N(C(=O)C2CC3C(CC2C)C3(C)C)[C@H]1c1ccccc1 (some centres unmarked) [II-376]	> 200%	1000 to 10000 nM	+++ (≥350)	1000 to 10000 nM
COc1ccc(C(C)(C)C)cc1CN[C@H]1[C@H](C(C)(C)C)[C@@H](C(=O)O)N(C(=O)C2CCC(F)(F)CC2)[C@H]1c1ccccc1 [II-377]	100 to 200%	1000 to 10000 nM	+++ (≥350)	1000 to 10000 nM
COc1ccc(C(C)(C)C)cc1CN[C@H]1[C@H](C(C)(C)C)[C@@H](C(=O)O)N(C(=O)C2CCCCC2C(F)(F)F)[C@H]1c1ccccc1 (some centres unmarked) [II-378]	> 200%	< 1000 nM	+++ (≥350)	< 1000 nM
CCCCOC(=O)N1[C@H](C(=O)O)[C@@H](C(C)(C)C)[C@H](NCc2cc(C(C)(C)C)ccc2OC)[C@@H]1c1ccccc1 [II-383]	> 200%	1000 to 10000 nM	+++ (≥350)	< 1000 nM
C#CCOC(=O)N1[C@H](C(=O)O)[C@@H](C(C)(C)C)[C@H](NCc2cc(C(C)(C)C)ccc2OC)[C@@H]1c1ccccc1 [II-384]	> 200%	1000 to 10000 nM	+++ (≥350)	1000 to 10000 nM
CCCCCOC(=O)N1[C@H](C(=O)O)[C@@H](C(C)(C)C)[C@H](NCc2cc(C(C)(C)C)ccc2OC)[C@@H]1c1ccccc1 [II-385]	> 200%	< 1000 nM	+++ (≥350)	< 1000 nM
COc1ccc(C(C)(C)C)cc1CN[C@H]1[C@H](C(C)(C)C)[C@@H](C(=O)O)N(C(=O)O[C@H]2C[C@@H](C)CC[C@@H]2C(C)C)[C@H]1c1ccccc1 [II-386]	> 200%	< 1000 nM	+++ (≥350)	< 1000 nM
